# What was measured:
# Format in all cases: cell-based, human
# [1] = test system: CD4+ T-cell clone (PAPc66); experiment: Antigen specificity of T cell clone PAPc66 with autologous EBV-LcL, IFNγ ELISA
# Experimental: FIG. 1. T cell clone PAPc66 recognizes a naturally processed epitope from PAP. (A) PAP fusion proteins PA2024, CHOPA2024 and hPAPGM and PAP from a baculoviral expression system (iPAP) and mammalian expression system (CHOPAP) were titrated with autologous EBV-LcL and PAPc66. Assay was set up in 96 well round bottom plates with 1×10^5 cells/well of PAPc66, 2×10^5 cells/well EBV-LcL and antigens at 50 μg/mL (black bars), 25 μg/mL (stripe bars) and 12.5 μg/mL (dot bars) in complete RPMI media with 10% FBS. Assay was incubated for 48 hours at 37° C. with 5% CO2 at which time supernatants were harvested and tested for IFNγ by ELISA. (B) To map the specific PAP peptide, chemically synthesized peptides from the PAP sequence were used. These 94 peptides were 15 amino acids in length overlapping by 11 amino acids and were individually tested for the ability to stimulate PAPc66 using autologous EBV-LcL and each peptide at 2 μg/mL in the assay. The assay was set up as in (A) and supernatants were tested for IFNγ by ELISA. […] Supernatants were analyzed for peptide specific IFNγ production by ELISA. […]
# (§1) IFN[…] production was measured using anti-human IFNγ antibody pairs for ELISA (BD Pharmingen, San Diego, Calif.). […] 2M HCl was added to stop the reaction and plates were read for absorbance at 492 nm on a spectrophotometer. […]
# [2] = test system: CD4+ T-cell clone (PAPc66); experiment: MHC Class II blocking assay with autologous EBV-LcL, IFNγ ELISA; details: peptide at 2 μg/mL, 48 hours
# Experimental: FIG. 2. PAPc661 is MHC class II restricted. PAPc66 was stimulated with autologous EBV-LcL at 2×10^5 cells/mL and PAP257-271 at 2 μg/mL in the presence of MHC Class II blocking antibodies. The assay was set up in 96 well round bottom plates in complete RPMI media +10% FBS with anti-HLA-DR ♦ (Dendreon) and anti-HLA-DP ▪ or anti HLA-DQ ▴ (Leinco Technologies, Inc., St. Louis, […].) at the concentrations shown. Anti-HLA-A2 antibody (∘) was used as a negative control. PAPc66 was added to all wells at 1×10^5 cells/well and the assay was incubated for 48 hours at 37° C. and 5% CO2. After the incubation, supernatants were harvested and tested for IFNγ by ELISA. IFNγ was not detected for conditions without peptide.
# All assays were set up in triplicate in 96-well round bottom plates with antigen or peptide in cRPMI 1640+10% FBS (Fetal Bovine Serum (Invitrogen, Carlsbad, Calif.)), T cell clones at 1×10^5 cells/well and antigen presenting cells at 2×10^5 cells/well. Autologous EBV-LcL were used for antigen presenting cells in specificity assays and assays conducted to show peptide promiscuity using the HLA-DRB1 EBV-LcLs. All assays were incubated for 48 hours at 37° C. with 5% CO2. […]
# as §1
# [3] = test system: CD4+ T-cell clone (PAPc66); experiment: Peptide promiscuity assay: HLA-DRβ1 homozygous EBV-LcL lines present the peptide to PAPc66, IFNγ and granzyme B measured by ELISA
# From the text: FIG. 3. PAP257-271 is a promiscuous MHC class II PAP epitope recognized by the T cell clone PAPc66. (A) The peptide, PAP257-271 (RLQGGVLVNNEILNHM; SEQ ID NO:1), recognized by a CD4+ T-cell clone (PAPc66) in the context of MHC class II, is capable of inducing T-cell activation when presented by lymphoblastoid cell lines representing 9 different HLA-DR serological families (β chain; DR1, DR4, DR7, DR8, DR11, DR12, DR13, DR14, DR15) having over 15 distinct HLA-DRβ1 alleles. […] The assay was set up in 96 well round bottom plates with PAPc66 at 1×10^5 cells/well, PAP257-271 at 2 μg/mL and 2×10^5 EBV-LcL per well in complete RPMI+10% FBS. Each HLA-DR[…]EBV-LcL line, homozygous for the HLA-DRβ1 allele shown, was tested for the ability to present PAP257-271 to PAPc66. An irrelevant PAP peptide and no peptide control were also included. After 48-hour incubation at 37° C. and 5% CO2, supernatants were tested for IFNγ and granzyme B (B) by ELISA. Results are shown with background (no peptide) for each EBV-LcL line and PAPc66 subtracted.
# HLA-DRβ1 EBV-LcL lines were purchased from the European Collection of Cell Cultures originating from the 12th International Histocompatibility Workshop (IHW) held in Strasbourg, France. HLA-DR EBV-transformed lymphoblastoid cells were homozygous for the HLA-DRβ1 allele (Table I). EBV-LcL were also generated from various subject PBMC using supernatant from the B95-8 cell line (ATCC, Manassas, Va.) for the expansion and testing of autologous T cell clones.
# All assays were set up in triplicate in 96-well round bottom plates with antigen or peptide in cRPMI 1640+10% FBS (Fetal Bovine Serum (Invitrogen, Carlsbad, Calif.)), T cell clones at 1×10^5 cells/well and antigen presenting cells at 2×10^5 cells/well. […]
# as §1
sequence,measurement,setting,value
"RLQGGVLVNEILNHM (residues 257-271 of human prostatic acid phosphatase (PAP), PAP epitope 257-271, Peptide #65, PAP-257-271) [PAP257-271, peptide corresponding to residues 257-271 of the human PAP protein]",nature of the epitope recognized by PAPc66 (summary of FIGS. 1-3),[1],"naturally processed, MHC class II-restricted promiscuous epitope"
same,"MHC class II restriction of presentation (blocking antibodies anti-HLA-DR, -DP, -DQ)",[2],presented both in the context of HLA-DR and HLA-DQ
same,cytokine production by clone PAPc66 upon activation with the presented peptide,[3]; IFNγ and granzyme B ELISA of supernatants,produce IFNγ and granzyme B upon activation
same,number of distinct HLA-DRβ1 alleles presenting the peptide with T-cell activation,"[3]; peptide at 2 μg/mL, 48 hours, EBV-LcL homozygous for the HLA-DRβ1 allele",over 15
same,number of different HLA-DR serological families whose lymphoblastoid cell lines present the peptide and induce T-cell activation,"[3]; peptide at 2 μg/mL, 48 hours, PAPc66 1×10^5 cells/well, 2×10^5 EBV-LcL per well",9

# From patent publication US8647865B2, “Promiscuous PAP CD4 T cell epitopes” (Dendreon Corporation, priority 2006, dated 2014)
